Test: in vitro
Details: human, hela cells, % viability

Structure (SMILES) | viability at 28.5 h, 10 µM
c1ccc2c(c1)nc1n2CN(Cc2ccc3c(c2)OCO3)CN1 [CBK268087] | 99.1%
CCc1ccc(C2=CC(c3cccc(C)c3)n3nnnc3N2)cc1 (stereo not drawn) [CBK268095] | 88.6%
O=C(CSc1nnc(-c2ccccc2O)n1-c1ccccc1)N1CCc2ccccc21 [CBK268097] | 100%
O=C(CSc1nc2ccccc2c2nc3ccccc3n12)Nc1ccc(Cl)cc1F [CBK268098] | 115%
CC(=O)Nc1ccc(S(=O)(=O)NC2(C(F)(F)F)NC(=O)N(C3CCCC3)C2=O)cc1 (stereo not drawn) [CBK268100] | 84.6%
COc1ccc(S(=O)(=O)N(C)CC(=O)N2CCN(C)CC2)cc1C [CBK268105] | 100%
O=C(O)c1ccc(NC(=O)c2cnccn2)cc1 [CBK268110] | 94%
Cc1cc(C)nc(NC(=O)C(C)Oc2ccc(Cl)cc2C)n1 (stereo not drawn) [CBK268111] | 94.8%
Cc1scc(C(=O)NN2CCN(C)CC2)c1-c1ccccc1 [CBK268115] | 93%
COC(=O)c1c(NC(=O)c2cc(C)on2)sc(C(=O)Nc2ccc(Cl)cc2)c1C [CBK268116] | 89.7%
COc1ccc2c(Cl)c(C(=O)NCCc3ccc(S(N)(=O)=O)cc3)sc2c1 [CBK268120] | 104%
COc1cccc(CN2CCN(C(=O)C3(C)CC3(Cl)Cl)CC2)c1 (stereo not drawn) [CBK268121] | 96.7%
Cc1noc(C)c1C(=O)Nc1ccc(N2CCOCC2)c2nonc12 [CBK268125] | 94.7%
S=C(NCCN1CCCCC1)NCC1CCCO1 (stereo not drawn) [CBK268129] | 107%
Cc1cc(C(=O)NCCc2ccc(S(N)(=O)=O)cc2)no1 [CBK268130] | 99.3%
Cc1cc(C(=O)N(Cc2ccccc2)c2ccccc2)no1 [CBK268131] | 94.2%
Cc1cc(OCC(=O)NN2CCN(C)CC2)ccc1[N+](=O)[O-] [CBK268136] | 99.8%
O=C(O)C1C2CCC(O2)C1C(=O)Nc1ccc(S(=O)(=O)N2CCc3ccccc32)cc1 (stereo not drawn) [CBK268137] | 93.1%
COc1ccc(C(=O)Nc2ccc(S(=O)(=O)N3CCN(C)CC3)cc2)cc1[N+](=O)[O-] [CBK268140] | 97%
Cc1noc(C)c1C(=O)NCCc1ccc(S(N)(=O)=O)cc1 [CBK268143] | 104%
CCc1ccc(C(=O)NCCCN2CCOCC2)cc1 [CBK268144] | 104%
Cc1cc(C(=O)NCCCn2ccnc2)no1 [CBK268145] | 103%

Structure (SMILES) | viability at 28.5 h, 10 µM
COC(=O)c1sccc1NC(=O)Cc1ccccc1[N+](=O)[O-] [CBK268146] | 98.7%
Cc1ccc(OCC(=O)Nc2sc3c(c2C(N)=O)CCCCC3)c([N+](=O)[O-])c1 [CBK268148] | 101%
O=C(COc1ccccc1)Nc1ccc(N2CCOCC2)c2nonc12 [CBK268149] | 87.9%
CCC(Oc1cc(C)ccc1Cl)C(=O)Nc1sccc1C(N)=O (stereo not drawn) [CBK268152] | 105%
Cc1occc1C(=O)NC(C)c1ccc2c(c1)OCO2 (stereo not drawn) [CBK268153] | 105%
O=C(O)COCC(=O)N1CCN(c2ccccc2Cl)CC1 [CBK268155] | 108%
COc1cc(NS(=O)(=O)c2ccc(NC(=O)c3cccnc3)cc2)ncn1 [CBK268156] | 93%
Cc1cc(NS(=O)(=O)c2ccc(NC(=S)NC3CCCCC3)cc2)no1 [CBK268157] | 91.3%
Cc1onc(-c2ccccc2)c1C(=O)Nc1cccc(S(=O)(=O)N2CCOCC2)c1 [CBK268159] | 101%
Cc1cc(NS(=O)(=O)c2ccc(NC(=S)NCC3CCCO3)cc2)no1 (stereo not drawn) [CBK268160] | 101%
CN1CCN(S(=O)(=O)c2ccc(NC(=O)Cc3ccc([N+](=O)[O-])cc3)cc2)CC1 [CBK268161] | 121%
Cc1cc(C(=O)Nc2ccc(S(=O)(=O)Nc3onc(C)c3C)cc2)no1 [CBK268166] | 95.3%
NC(=O)c1cc(Cc2ccccc2)sc1NC(=O)c1cccnc1 [CBK268168] | 96.2%
S=C(NCCN1CCCCC1)NCc1ccco1 [CBK268171] | 107%
O=C(Nc1ccc(S(=O)(=O)NCCc2ccccc2)cc1)c1ccncc1 [CBK268172] | 90.3%
O=S(=O)(c1cccc2nsnc12)N1CCN(C2CCCCC2)CC1 [CBK268173] | 96.9%
CN1CCN(NC(=O)COc2ccc(Br)cc2Cl)CC1 [CBK268174] | 92.6%
COC(=O)c1cc(-c2ccccc2)sc1NC(=O)c1cnccn1 [CBK268175] | 93.5%
O=C(O)C1CC=CCC1C(=O)Nc1ccc(S(=O)(=O)N2CCCc3ccccc32)cc1 (stereo not drawn) [CBK268179] | 94.8%
O=C(NCc1ccco1)c1c(NC(=O)C2CCCO2)sc2c1CCC2 (stereo not drawn) [CBK268180] | 94.4%
Cc1sc(NC(=O)c2ccc3c(c2)OCCO3)c(C(=O)NCc2cccnc2)c1C [CBK268181] | 90.8%
CCOc1cccc(C(=O)NN2CCN(C)CC2)c1 [CBK268184] | 97.7%

Structure (SMILES) | viability at 28.5 h, 10 µM
O=C(Nc1ccc(S(=O)(=O)NCc2ccccc2)cc1)Nc1ccc2c(c1)OCO2 [CBK268186] | 95.1%
CS(=O)(=O)N(CC(=O)Nc1ccc(S(=O)(=O)N2CCCCC2)cc1)c1ccc2c(c1)OCO2 [CBK268189] | 96.4%
N#Cc1c(C(F)(F)F)cc(-c2ccccc2)nc1SCCC(=O)Nc1ccccc1O [CBK268191] | 103%
COc1ccc(C2CC(c3ccccc3)=NN2c2ccc(S(N)(=O)=O)cc2)cc1OC (stereo not drawn) [CBK268193] | 107%
NS(=O)(=O)c1ccc(NCc2cc(Cl)ccc2OCc2ccc(F)cc2)cc1 [CBK268196] | 87.2%
COc1ccc([N+](=O)[O-])cc1N(CC(=O)Nc1cccc2ccccc12)S(C)(=O)=O [CBK268197] | 84.2%
Cc1c(Cl)cccc1NC(=O)CSCc1cc(=O)[nH][nH]1 [CBK268199] | 98.1%
Cc1ccc(-c2cc(C(=O)NCCCn3ccnc3)no2)cc1 [CBK268200] | 102%
CCn1c(SCC(=O)Nc2ccccc2[N+](=O)[O-])nnc1-c1cc(Br)ccc1O [CBK268201] | 101%
NS(=O)(=O)c1ccc(NC(=O)CSc2ccc3ccccc3c2)cc1 [CBK268203] | 89.8%
c1csc(-c2nn3c(Cn4nnc5ccccc54)nnc3s2)c1 [CBK268204] | 87.7%
COc1cc(NC(=O)Cc2cccc3ccccc23)c(C(=O)O)cc1OC [CBK268206] | 99.9%
CN1CCN(CC(=O)Nc2sc3c(c2C(=O)NCc2ccccc2)CCCC3)CC1 [CBK268207] | 102%
Cc1cc(NC(=O)c2nn3c(C(F)(F)F)cc(-c4ccccc4)nc3c2Cl)nn1CC(=O)N1CCOCC1 [CBK268209] | 105%
Cc1ccc(S(=O)(=O)NCCOc2ccccc2)c(C)c1NS(C)(=O)=O [CBK268210] | 92.9%
O=C(CSc1ncn(-c2ccccc2)n1)Nc1ccc2[nH]c(=O)[nH]c2c1 [CBK268212] | 106%
Cc1cc2c(N3CCN(Cc4nc5ccccc5[nH]4)CC3)ncnc2s1 [CBK268213C] | 101%
Cc1ccc(NS(=O)(=O)c2cc(C(=O)Nc3cccc(N(C)S(C)(=O)=O)c3)ccc2C)c(C)c1 [CBK268220] | 92.7%
CCN1CCN(C(=O)CN(c2ccccc2)S(=O)(=O)N(C)C)CC1 [CBK268222] | 113%
CCN1CCN(C(=O)c2ccc(C)c(S(=O)(=O)Nc3cccc(C)c3)c2)CC1 [CBK268226] | 109%
O=C(Cc1cc(C(=O)O)c2ccccc2n1)Nc1ccccc1 [CBK268227] | 96.3%
O=C(Cc1ccc(Br)cc1)Nc1cc(C(=O)O)cc(C(=O)O)c1 [CBK268228] | 88.8%

Structure (SMILES) | viability at 28.5 h, 10 µM
Cc1ccc(Cl)cc1N1CCN(C(=O)COc2ccc(S(=O)(=O)Nc3ccc(F)cc3)cc2)CC1 [CBK268229] | 92.1%
COc1ccc(S(=O)(=O)N2CCCC(C(=O)NCc3ccc4c(c3)OCO4)C2)cc1Cl (stereo not drawn) [CBK268230] | 89.1%
c1ccc(C2=Nn3c(Cn4nnc5ccccc54)nnc3SC2)cc1 [CBK268232] | 91.7%
Nn1c(Cn2nnc3ccccc32)n[nH]c1=S [CBK268233] | 111%
CN(C)CCn1c(C(=O)O)cc2ccccc21 [CBK268234C] | 110%
c1nc(NCCCN2CCOCC2)c2c3c(sc2n1)CCCCC3 [CBK268236] | 91.2%
O=C1CCCN1c1ccc(S(=O)(=O)N2CCN(c3ccccn3)CC2)cc1 [CBK268237] | 84.5%
Cc1cccc(-c2noc(CCC(=O)NCC3CCCO3)n2)c1 (stereo not drawn) [CBK268241] | 118%
Cc1cc(=O)[nH]c(SCCC(=O)O)n1 [CBK268242] | 106%
O=C(COc1ccc(S(=O)(=O)N2CCCC2)cc1Cl)NCC1CCCO1 (stereo not drawn) [CBK268243] | 86.6%
O=S(=O)(NCC(c1ccccc1)n1cc(-c2ccccc2)nn1)c1ccccc1 (stereo not drawn) [CBK268244] | 85.2%
COc1ccc(-c2noc(CSc3nnc(-c4ccncc4)n3C)n2)cc1 [CBK268245] | 96.8%
O=C(CSc1nc2ccccc2c(=O)[nH]1)Nc1ccc(Cl)c(C(=O)O)c1 [CBK268246] | 103%
CC(=O)NCCc1nc2ccc(NC(=O)Cn3nc(C)c4ccccc4c3=O)cc2n1C [CBK268249] | 111%
Brc1cccc(CSc2nnc(COc3ccccc3)n2Cc2ccccc2)c1 [CBK268250] | 113%
O=C(COc1ccc(NS(=O)(=O)c2ccc3oc4cc([N+](=O)[O-])ccc4c3c2)cc1)N1CCOCC1 [CBK268252] | 100%
CCN(CC)S(=O)(=O)c1ccc(Nc2nc3ccc(Cl)cc3n3cnnc23)cc1 [CBK268259] | 87.6%
O=C(CSc1ncn(-c2ccccc2)n1)Nc1cc(Cl)cc(Cl)c1 [CBK268261] | 92%
Cn1c(CN2CCN(C(=O)NC3CCCCC3)CC2)nc2cc([N+](=O)[O-])ccc21 [CBK268266] | 97.1%
C[S+]([O-])CCC(NS(=O)(=O)c1ccccc1)C(=O)O (stereo not drawn) [CBK268267] | 93.2%
Cc1cc(/C=C(/C#N)c2cccc(F)c2)c(C)n1-c1ccc(S(N)(=O)=O)cc1 [CBK268268] | 99.9%

Reference: PMC12040169 (PLOS Biology, 2025)
